Read-outs that look alike come from different tables or passages of the source.
System: primary neuronal cultures from embryonic rat brains
Assay: Rat oscillation assay (FLIPR, neuronal calcium oscillations)
Type: cell-based
In short: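 E18 Wistar rat cortical neurons cultured 8–10 days, loaded with 1 µM Fluo-8 AM, then kept in Mg2+-free HEPES-buffered HBSS (2 mM CaCl2, pH 7.4) to drive synchronized calcium oscillations. Fluorescence read at 1 Hz over 500 sec with or without XE-991, compound added at 250 sec; second acquisition 20 min after addition.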

Q: How did the IC50 (Rattus norvegicus, 20 min, 20 min after compound addition, AUC of fluorescence, read-out: FLIPR: IC50 [nM] 20 min) turn out when `O=C(NCc1cccc(C(F)(F)F)c1)NC12CC(C(F)F)(C1)C2` [Example 47, 1-(3-Difluoromethyl-Bicyclo[1.1.1]Pent-1-yl)-3-(3-Trifluoromethyl-Benzyl)-Urea] was run?
A: Its IC50 is 160 nM.

Q: And the IC50 (Rattus norvegicus, Cortical neurone, acute phase, ratio of AUC fluorescence before and after compound addition, rat cortical neurons, Mg-free buffer, read-out: FLIPR: IC50 [nM] acute)?
A: Its IC50 is 118 nM.

Q: `O=C(NCc1cccc(C(F)(F)F)c1)NC1CC(C(F)F)C1` (single isomer, unassigned) [Example 53, 1-(3-(Difluoromethyl)Cyclobutyl)-3-(3-(Trifluoromethyl)Benzyl)Urea] was tested. Which IC50 (20 min after compound addition, AUC of fluorescence, read-out: FLIPR: IC50 [nM] 20 min) did it give?
A: Its IC50 is 295 nM.

Q: What about the IC50 (acute phase, ratio of AUC fluorescence before and after compound addition, rat cortical neurons, Mg-free buffer, read-out: FLIPR: IC50 [nM] acute) of the same compound?
A: Its IC50 is 168 nM.
